10 molecules from ChEMBL document CHEMBL5137056, “Micromonospora: A Prolific Source of Bioactive Secondary Metabolites with Therapeutic Potential” (J Med Chem, 2022) can be followed below.

The structures appear in SMILES notation. ≈ marks a conversion by molar mass, not a printed value.

Assay [1] deals with Staphylococcus aureus. The experiment in a line: Antibacterial activity against Staphylococcus aureus NBRC12732 assessed as bacterial growth inhibition. In kind it is functional.
In assay [2] the test system is Staphylococcus aureus. As to the kind of experiment: Antibacterial activity methicillin-resistant Staphylococcus aureus ATCC 43300 assessed as bacterial growth inhibition by microdilution method. In kind it is functional. (In general: In broth dilution the organism is exposed to a series of concentrations in liquid medium.)
Assay [3] deals with Human immunodeficiency virus. As to the kind of experiment: Antiviral activity agianst HIV assessed as viral growth inhibition. Format: functional, organism-based. To be noted: Human immunodeficiency virus 1.
Assay [4] can be described thus: Inhibition of Staphylococcus tyrS using tyrosine as substrate preincubated for 10 mins by substrate addition and measured after 2 hrs. Also noted: species or system Staphylococcus sp.
Assay [5] in a line: Inhibition of gastrulation in starfish embryo. In kind it is functional. To be noted: Marthasterias glacialis.
Assay [6] concerns KB. The experiment in a line: Cytotoxicity against human KB cells assessed as reduction in cell viability. In kind it is functional. To be noted: read-out: ED50 (the source's name).
The target of assay [7] is NAD(P)H dehydrogenase [quinone] 1 (Mus musculus) (UniProt Q64669). The experiment in a line: Activation of QR1 in mouse hepatoma cells incubated for 48 hrs by MTT assay. Format: cell-based. To be noted: Hepatoma cell line, filed as activator. For orientation: Tetrazolium dyes change colour on reduction, which living cells bring about.
A short description of assay [8]: Upregulation of glutathione level in mouse Hepa1c1c7 cells assessed as drug concentration required for double induction incubated for 48 hrs in presence of NADPH by Ellman method. In kind it is functional. In general terms: Ellman's reagent forms a yellow product with free thiols.

Chain of NAD(P)H dehydrogenase [quinone] 1 (Mus musculus) (Q64669 whole entry): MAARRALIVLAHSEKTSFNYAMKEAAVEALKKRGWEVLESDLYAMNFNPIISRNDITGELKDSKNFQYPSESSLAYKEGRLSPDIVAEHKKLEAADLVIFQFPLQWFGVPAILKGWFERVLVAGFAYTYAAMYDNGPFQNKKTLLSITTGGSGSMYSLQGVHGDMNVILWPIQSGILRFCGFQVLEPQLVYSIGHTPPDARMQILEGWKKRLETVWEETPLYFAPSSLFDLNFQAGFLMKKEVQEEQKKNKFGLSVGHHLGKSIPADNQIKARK

Turning to `C[C@H]1CC[C@@H]2[C@H](C=C[C@H]3[C@H](C)/C=C/C[C@]4(C)C=C(CO)[C@H](C[C@@H](C)O)C[C@]45OC(=O)C(=C5O)C(=O)[C@@]23C)C1` [MAKLAMICIN], in assay [1], the MIC was 13 µg/mL (≈ 24.8 µM). Turning to `CNC1=CC(=O)c2c(cnc(C)c2C)C1=O` [MANSOURAMYCIN A], in assay [2], the MIC came out at 8 µg/mL. In the case of `CC(C)CCCCCCCC[C@@H](O)CC(=O)N[C@@H](CCC(=O)O)C(=O)N[C@@H](CC(C)C)C(=O)N[C@H](CC(C)C)C(=O)N[C@H](C(=O)N[C@@H](CC(=O)O)C(=O)N[C@H](CC(C)C)C(=O)N[C@@H](CC(C)C)C(=O)O)C(C)C`, in assay [3], the IC50 was 5.3 µM. The molecule `N[C@@H](Cc1ccc(O)cc1)C(=O)N[C@H](C(=O)O)[C@H]1[C@H](O)[C@]2(O)CO[C@@H]([C@@H]2O)N1O` came in with an IC50 in assay [4] of less than 0.001 µM. `C=C/C=C/[C@H]1O[C@@](O)([C@@H](C)[C@H](O)[C@H](C)[C@H]2OC(=O)/C(OC)=C/C(C)=C/[C@@H](C)[C@@H](O)[C@@H](C)C/C(C)=C/C=C/[C@@H]2OC)C[C@@H](O)[C@@H]1C`: the MIC in assay [5] came out at 0.01 µg/mL (≈ 0.0158 µM). `COc1n/c(=C\c2ccccc2)c(=O)[nH]/c1=C\c1ccccc1`: the EC50 in assay [6] amounted to 0.94 µg/mL (≈ 3.09 µM). In assay [5], `C=C/C=C/[C@H]1O[C@@](O)([C@@H](C)[C@H](O)[C@H](C)[C@H]2OC(=O)/C(OC)=C/C(C)=C/[C@@H](C)[C@@H](O)[C@@H](C)C/C(C)=C/C=C/[C@@H]2OC)C[C@@H](OC(=O)/C=C/C(=O)NC2=C(O)CCC2=O)[C@@H]1C` showed an MIC of 0.01 µg/mL (≈ 0.0121 µM). In the case of `CC1=C[C@@]2(C)C/C=C/[C@@H](C)[C@@H]3C=C[C@@H]4C[C@@H](C)CC[C@H]4[C@]3(C)C(=O)C3=C(O)[C@@]2(C[C@H]1C[C@@H](C)O)OC3=O`, in assay [1], the MIC was 1.6 µg/mL (≈ 3.15 µM). For `CC[C@H]1C[C@@H](C)C(=O)/C=C/[C@]2(C)O[C@H]2[C@H](C)[C@@H](CC)OC(=O)C[C@@H](O)[C@H](C)[C@H]1O[C@@H]1O[C@@H](C)[C@H](O)[C@@H](O)[C@H]1O`, the figures for the CD in assay [7] and in assay [8] were 10.1 µM and 27.7 µM, respectively. `CCC(C)CCCCCCCC[C@@H](O)CC(=O)N[C@@H](CCC(=O)O)C(=O)N[C@@H](CC(C)C)C(=O)N[C@H](CC(C)C)C(=O)N[C@H](C(=O)N[C@@H](CC(=O)O)C(=O)N[C@H](CC(C)C)C(=O)N[C@@H](CC(C)C)C(=O)O)C(C)C` (stereo partly specified): the IC50 in assay [3] was found to be 5.3 µM.

Broadly, the MIC is the least concentration at which growth counts as inhibited. Broadly, the IC50 is the point on the concentration scale where inhibition reaches its midpoint.
